From patent US10227331B2 (priority 2015, dated 2019)
Values after ≈ are worked out from the molar mass of the structure shown.

Columns and labels:
MB 5919 (OprD+, efflux+) = assay type: cell-based, Pseudomonas aeruginosa
[1] = system: MB 9862 (MB 5890 Trans pFIp-Vim1, efflux-); assay type: cell-based, Pseudomonas aeruginosa
[2] = system: MB 5890 Trans pFIp-Vim2 plasd (efflux-); assay type: cell-based, Pseudomonas aeruginosa
[3] = system: MB 9861 (MB 5919 Trans pFIp-Vim1 plasmid, efflux+); assay type: cell-based, Pseudomonas aeruginosa
[4] = system: MB 9799 (MB 5890 Trans IMP1 plasmid, efflux-); assay type: cell-based, Pseudomonas aeruginosa; conditions: CL 5673 (IMP-1) plasmid
[5] = system: MB 5919 Trans pFIp-Vim2 plasd (efflux+); assay type: cell-based, Pseudomonas aeruginosa
MB 5890 (OprD+, efflux-) = assay type: cell-based, Pseudomonas aeruginosa
[6] = system: P. aeruginosa expressing IMP-1, efflux+ (MB9798); assay type: cell-based, Pseudomonas aeruginosa; conditions: for P. aeruginosa expressing IMP-1, efflux+ (MB9798) MITC95: imipenem at 2 μg/mL, in the presence of a class A, C, D serine β-lactamase inhibitor closely related to relebactam; for Efflux ratio: ratio MITC95 PA_9798/MITC95 PA_9799
Description: (§1) The strain background is Pseudomonas aeruginosa PAO1.

VIM-1 = VIM-1 (Pseudomonas aeruginosa (strain ATCC 15692 / DSM 22644 / CIP 104116 / JCM 14847 / LMG 12228 / 1C / PRS 101 / PAO1), UniProt A0A0F7KYQ8); assay: biochemical; conditions: CCF2-FA substrate, 2 hours at 25° C
Summary of the method: (§2)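 Inhibitor was mixed with the metallo-β-lactamase and CCF2-FA. After 2 hours at 25° C, fluorescence of the coumarin–fluorescein cephalosporin substrate was read. IC50 was calculated with a 4-parameter fit.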

[7] = system: P. aeruginosa expressing IMP-1, efflux− (MB9799); assay: Efflux: concentration of MBL inhibitor which restores susceptibility to imipenem; assay type: cell-based, Pseudomonas aeruginosa; conditions: imipenem at 2 μg/mL, in the presence of a class A, C, D serine β-lactamase inhibitor closely related to relebactam
Description: as §1

[8] = system: Klebsiella pneumoniae expressing VIM-1 (IHMA599644); assay type: cell-based; conditions: VIM-1 (IHMA599644), with imipenem 1 μg/ml, 95% inhibition of bacterial growth
Summary of the method: (§3)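 Colonies from overnight 35 °C blood-agar cultures were suspended in saline, diluted 1:100 into 1.1× CAMHB and exposed to test compound with or without imipenem at 1 μg/ml. After 22–24 h at 35 °C, absorbance was read to find the concentration restoring imipenem susceptibility.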

[9] = system: Serratia marcescens expressing IMP-1 (CL5741); assay type: cell-based; conditions: IMP-1 (CL5741), with imipenem 1 μg/ml, 95% inhibition of bacterial growth
Summary of the method: as §3

[10] = system: Escherichia coli expressing NDM-1 (CLB30005, CLB30016); assay type: cell-based; conditions: NDM-1 (CLB30016), with imipenem 1 μg/ml, 95% inhibition of bacterial growth
Summary of the method: as §3

IMP-1 = IMP-1 (Serratia marcescens, UniProt P52699); assay: biochemical; assay type: biochemical; conditions: CCF2-FA substrate, 2 hours at 25° C; read-out: IMP-1 IC50
Summary of the method: as §2

NDM-1 = NDM-1 (Klebsiella pneumoniae, UniProt C7C422); assay: biochemical; assay type: biochemical; conditions: CCF2-FA substrate, 2 hours at 25° C; read-out: NDM-1 IC50
Summary of the method: as §2

Chain of NDM-1 (C7C422 whole entry, looked up, species assumed): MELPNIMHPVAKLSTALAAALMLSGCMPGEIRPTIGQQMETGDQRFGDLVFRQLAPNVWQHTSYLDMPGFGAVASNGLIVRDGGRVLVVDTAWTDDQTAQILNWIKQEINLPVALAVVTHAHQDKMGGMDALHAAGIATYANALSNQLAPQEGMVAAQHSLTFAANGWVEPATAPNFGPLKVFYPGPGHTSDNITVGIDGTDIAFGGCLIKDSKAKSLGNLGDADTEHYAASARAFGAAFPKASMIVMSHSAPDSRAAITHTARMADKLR
Chain of IMP-1 (P52699 whole entry, looked up, species assumed): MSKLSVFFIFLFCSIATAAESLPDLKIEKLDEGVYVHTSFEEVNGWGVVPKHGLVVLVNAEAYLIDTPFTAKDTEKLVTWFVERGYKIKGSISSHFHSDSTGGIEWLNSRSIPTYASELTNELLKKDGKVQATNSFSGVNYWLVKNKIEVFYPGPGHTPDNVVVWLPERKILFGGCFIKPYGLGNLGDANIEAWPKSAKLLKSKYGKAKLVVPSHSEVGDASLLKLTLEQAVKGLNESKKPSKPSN

| Structure (SMILES) | MIC (MB 5919 (OprD+, efflux+)) | MIC [1] | MIC [2] | MIC [3] | MIC [4] | MIC [5] | MIC (MB 5890 (OprD+, efflux-)) | P. aeruginosa expressing IMP-1, efflux+ (MB9798) MITC95 [6] | Efflux ratio [6] | IC50 (VIM-1) | P. aeruginosa expressing IMP-1, efflux− (MB9799) MITC95 [7] | Klebsiella pneumoniae MITC95 [8] | Serratia marcescens MITC95 [9] | Escherichia coli MITC95 [10] | IC50 (IMP-1) | IC50 (NDM-1) |
| --- | --- | --- | --- | --- | --- | --- | --- | --- | --- | --- | --- | --- | --- | --- | --- | --- |
| CC(C)(O/N=C(\C(=O)N[C@@H]1C(=O)N2C(C(=O)[O-])=C(C[n+]3ccccc3)CS[C@H]12)c1csc(N)n1)C(=O)O [CAZ, ceftazidime] | 1 µg/mL (≈ 1.83 µM) | >256 µg/mL | 64 µg/mL (≈ 117 µM) | >256 µg/mL | 256 µg/mL (≈ 468 µM) | 128 µg/mL (≈ 234 µM) | 0.5 µg/mL (≈ 0.915 µM) |  |  |  |  |  |  |  |  |  |
| NC[C@@H](N)CS(=O)(=O)c1ccc(-c2ccc(N)nc2)c(-c2nn[nH]n2)c1S(N)(=O)=O [Example 371, (R)-3-(6-aminopyridin-3-yl)-6-((2,3-diaminopropyl)sulfonyl)-2-(2H-tetrazol-5-yl) benzenesulfonamide] |  |  |  |  |  |  |  | 3.125 µM | 2.00 | 1.08 nM | 1.563 µM | 3.125 µM | 1.563 µM | 1.563 µM | 1.38 nM | 1.16 nM |
| NC[C@H](N)CS(=O)(=O)c1ccc(-c2ccc(N)nc2)c(-c2nn[nH]n2)c1S(N)(=O)=O [Example 372, (S)-3-(6-aminopyridin-3-yl)-6-((2,3-diaminopropyl)sulfonyl)-2-(2H-tetrazol-5-yl) benzenesulfonamide] |  |  |  |  |  |  |  | 3.125 µM | 2.00 | 0.992 nM | 1.563 µM | 3.125 µM | 1.563 µM | 0.7813 µM | 1.43 nM | 1.17 nM |
| Nc1nc2c(-c3ccc(S(=O)(=O)C4CNC4)c(S(N)(=O)=O)c3-c3nn[nH]n3)cccc2n1CCO [Example 373, 3-(2-Amino-1-(2-hydroxyethyl)-1H-benzo[d]imidazol-4-yl)-6-(azetidin-3-ylsulfonyl)-2-(2H-tetrazol-5-yl)benzenesulfonamide] |  |  |  |  |  |  |  | 1.563 µM | 1.00 | 0.248 nM | 1.563 µM | 3.125 µM | 1.563 µM | 0.7813 µM | 0.409 nM | 0.139 nM |
| Nc1c(NCCO)cccc1-c1ccc(S(=O)(=O)C2CNC2)c(S(N)(=O)=O)c1-c1nn[nH]n1 [Example 374, 2′-Amino-4-(azetidin-3-ylsulfonyl)-3′-((2-hydroxyethyl)amino)-2-(2H-tetrazol-5-yl)-[1,1′-biphenyl]-3-sulfonamide] |  |  |  |  |  |  |  | 6.25 µM | 2.00 | 2.57 nM | 3.125 µM | 6.25 µM | 3.125 µM | 3.125 µM | 2.71 nM | 1.42 nM |
| NCCCNC(=O)c1cccc(-c2ccc(S(=O)(=O)CCN)c(S(N)(=O)=O)c2-c2nn[nH]n2)c1N [Example 375, 2-Amino-4′-((2-aminoethyl)sulfonyl)-N-(3-aminopropyl)-3′-sulfamoyl-2′-(2H-tetrazol-5-yl)-[1,1′-biphenyl]-3-carboxamide] |  |  |  |  |  |  |  | 1.563 µM | 2.00 | 0.53 nM | 0.7813 µM | 1.563 µM | 1.563 µM | 1.563 µM | 1.71 nM | 2.11 nM |
| NCCS(=O)(=O)c1ccc(-c2cccc(C(=O)N[C@H]3CCNC3)c2N)c(-c2nn[nH]n2)c1S(N)(=O)=O [Example 376, (S)-2-Amino-4′-((2-aminoethyl)sulfonyl)-N-(pyrrolidin-3-yl)-3′-sulfamoyl-2′-(2H-tetrazol-5-yl)-[1,1′-biphenyl]-3-carboxamide] |  |  |  |  |  |  |  | 3.125 µM | 2.00 | 0.539 nM | 1.563 µM | 1.563 µM | 1.563 µM | 3.125 µM | 2.58 nM | 2.92 nM |
| NCCS(=O)(=O)c1ccc(-c2cccc(C(=O)N[C@@H]3CCNC3)c2N)c(-c2nn[nH]n2)c1S(N)(=O)=O [Example 377, (R)-2-amino-4′-((2-aminoethyl)sulfonyl)-N-(pyrrolidin-3-yl)-3′-sulfamoyl-2′-(2H-tetrazol-5-yl)-[1,1′-biphenyl]-3-carboxamide] |  |  |  |  |  |  |  | 3.125 µM | 2.00 | 0.671 nM | 1.563 µM | 3.125 µM | 1.563 µM | 1.563 µM | 1.88 nM | 1.77 nM |
| NCCNC(=O)c1cccc(-c2ccc(S(=O)(=O)CCN)c(S(N)(=O)=O)c2-c2nn[nH]n2)c1N [Example 378, 2-amino-N-(2-aminoethyl)-4′-((2-aminoethyl)sulfonyl)-3′-sulfamoyl-2′-(2H-tetrazol-5-yl)-[1,1′-biphenyl]-3-carboxamide] |  |  |  |  |  |  |  | 1.563 µM | 2.00 | 0.544 nM | 0.7813 µM | 1.563 µM | 0.7813 µM | 0.7813 µM | 5.1 nM | 3.72 nM |
| NC[C@@H](O)CS(=O)(=O)c1ccc(-c2cc(I)cc3[nH]c(N)nc23)c(-c2nn[nH]n2)c1S(N)(=O)=O [Example 379, (R)-6-((3-amino-2-hydroxypropyl)sulfonyl)-3-(2-amino-6-iodo-1H-benzo[d]imidazol-4-yl)-2-(2H-tetrazol-5-yl)benzenesulfonamide] |  |  |  |  |  |  |  | 0.3906 µM | 0.50 | 0.123 nM | 0.7813 µM | 1.563 µM | 0.7813 µM | 0.7813 µM | 0.17 nM | 0.0809 nM |
| C[C@@H](O)[C@H]1C(=O)N2C(C(=O)O)=C(SCCN=CN)C[C@H]12 [Imipenem, imipenem] | 4 µg/mL (≈ 13.4 µM) | 64 µg/mL (≈ 214 µM) | 32 µg/mL (≈ 107 µM) | >64 µg/mL | 32 µg/mL (≈ 107 µM) | >64 µg/mL | 2 µg/mL (≈ 6.68 µM) |  |  |  |  |  |  |  |  |  |
| NCCS(=O)(=O)c1ccc(-c2cccc(NC(=O)[C@H](N)CO)c2)c(-c2nn[nH]n2)c1S(N)(=O)=O [compound 334, (R)-2-amino-N-(4′-((2-aminoethyl)sulfonyl)-3′-sulfamoyl-2′-(2H-tetrazol-5-yl)-[1,1′-biphenyl]-3-yl)-3-hydroxypropanamide] |  |  |  |  |  |  |  | 12.5 µM | 8.00 | 0.504 nM | 1.563 µM | 3.125 µM | 3.125 µM | 1.563 µM | 4.54 nM | 2.53 nM |
| NCCNC(=O)c1cc(-c2ccc(S(=O)(=O)CCN)c(S(N)(=O)=O)c2-c2nn[nH]n2)cnc1N [compound 337, 2-amino-N-(2-aminoethyl)-5-(4-((2-aminoethyl)sulfonyl)-3-sulfamoyl-2-(2H-tetrazol-5-yl)phenyl)nicotinamide] |  |  |  |  |  |  |  | 6.25 µM | 8.00 | 4.38 nM | 0.7813 µM | 1.563 µM | 1.563 µM | 0.7813 µM | 12.3 nM | 5.65 nM |
